Reference: ChEMBL document CHEMBL5352429, “Designed symmetrical β-hairpin peptides for treating multidrug-resistant salmonella typhimurium infections” (Eur J Med Chem, 2022)
≈ marks a conversion by molar mass, not a printed value. Calls of active or inactive are those of the source. The rule behind the calls is not given here. Peptide text beside a SMILES is read from it.

Experiments:
Salmonella typhimurium [1] = assay: Antibacterial activity against Salmonella typhimurium DT104 in the presence of NH4Cl by MH broth based assay; format: functional, Salmonella enterica subsp. enterica serovar Typhimurium; settings: Salmonella enterica
Salmonella typhimurium [2] = assay: Antibacterial activity against Salmonella typhimurium DT104 ATCC 700408 incubated overnight by standard microtiter dilution method; format: functional, Salmonella enterica subsp. enterica serovar Typhimurium; settings: Salmonella enterica
Escherichia coli = assay: Antibacterial activity against Escherichia coli O157:H7 CICC 21530 incubated overnight by standard microtiter dilution method; format: functional
Salmonella enteritidis = assay: Antibacterial activity against Salmonella enteritidis CICC 21527 incubated overnight by standard microtiter dilution method; format: functional, Salmonella enterica subsp. enterica serovar Enteritidis; settings: Salmonella enterica
Salmonella typhimurium [3] = assay: Antibacterial activity against Salmonella typhimurium DT104 in the presence of KCl by MH broth based assay; format: functional, Salmonella enterica subsp. enterica serovar Typhimurium; settings: Salmonella enterica
Lipopolysaccharide (LPS) = assay: Displacement of BODIPY-TR-cadaverine from Salmonella typhimurium LPS assessed as increase in fluorescence intensity by fluorescence spectrophotometric analysis; settings: Salmonella enterica subsp. enterica serovar Typhimurium; dose 0.25-8 µg/ml
RAW264.7 [4] = assay: Inhibition of LPS-stimulated NO production in mouse RAW264.7 cells incubated for 24 hrs by Griess reagent based analysis; format: functional, cell-based; settings: dose 1-128 µg/ml
Salmonella typhimurium [5] = assay: Antibacterial activity against Salmonella typhimurium DT104 in the presence of FeCl3 by MH broth based assay; format: functional, Salmonella enterica subsp. enterica serovar Typhimurium; settings: Salmonella enterica
[6] = Antibacterial activity against Salmonella enterica subsp. enterica serovar Choleraesuis CICC 21493 incubated overnight by standard microtiter dilution method; format: functional
Salmonella typhimurium [7] = assay: Antibacterial activity against Salmonella typhimurium CICC 21913 incubated overnight by standard microtiter dilution method; format: functional, Salmonella enterica subsp. enterica serovar Typhimurium; settings: Salmonella enterica
[8] = Antibacterial activity against Salmonella enterica subsp. enterica serovar Choleraesuis ATCC 13312 incubated overnight by standard microtiter dilution method; format: functional
Candida albicans = assay: Antifungal activity against Candida albicans ATCC 10231 incubated overnight by standard microtiter dilution method; format: functional
Salmonella typhimurium [9] = assay: Antibacterial activity against Salmonella typhimurium DT104 in the presence of MgCl2 by MH broth based assay; format: functional, Salmonella enterica subsp. enterica serovar Typhimurium; settings: Salmonella enterica
[10] = Antibacterial activity against Salmonella paratyphi C CICC 21512 incubated overnight by standard microtiter dilution method; format: functional, Salmonella enterica subsp. enterica serovar Paratyphi C; settings: Salmonella enterica
Salmonella typhimurium [11] = assay: Antibacterial activity against Salmonella typhimurium DT104 in the presence 50% inactivated mouse serum by MH broth based assay; format: functional, Salmonella enterica subsp. enterica serovar Typhimurium; settings: Salmonella enterica
Cell membrane = assay: Disruption of membrane integrity in Salmonella typhimurium DT104 assessed as increase in fluorescence intensity at 0.5 to 2 times of MIC incubated for 15 mins by PI staining based flow cytometric analysis; format: subcellular; settings: Salmonella enterica subsp. enterica serovar Typhimurium
Staphylococcus aureus [12] = assay: Antibacterial activity against methicillin-resistant Staphylococcus aureus ATCC 43300 incubated overnight by standard microtiter dilution method; format: functional
[13] = Hemolytic activity in human Red blood cells assessed as hemolysis at 128 ug/ml incubated for 1 hrs by absorbance based microplate reader analysis relative to control; format: toxicity, cell-based, Erythrocyte; settings: red blood cells (erythrocytes), at 128 µg/mL, read-out: Activity
Salmonella typhimurium [14] = assay: Antibacterial activity against Salmonella typhimurium DT104 in the presence of CaCl2 by MH broth based assay; format: functional, Salmonella enterica subsp. enterica serovar Typhimurium; settings: Salmonella enterica
Salmonella paratyphi = assay: Antibacterial activity against Salmonella paratyphi A CICC 21501 incubated overnight by standard microtiter dilution method; format: functional, Salmonella enterica subsp. enterica serovar Paratyphi A; settings: Salmonella enterica
RAW264.7 [15] = assay: Inhibition of LPS-stimulated TNF-alpha production in mouse RAW264.7 cells at 1 to 128 ug/ml incubated for 24 hrs by ELISA analysis; format: functional, cell-based; settings: dose 1-128 µg/ml
Salmonella typhimurium [16] = assay: Antibacterial activity against Salmonella typhimurium CICC 21483 incubated overnight by standard microtiter dilution method; format: functional, Salmonella enterica subsp. enterica serovar Typhimurium; settings: Salmonella enterica
RAW264.7 [17] = assay: Inhibition of LPS-stimulated IL-8 production in mouse RAW264.7 cells at 1 to 128 ug/ml incubated for 24 hrs by ELISA analysis; format: functional, cell-based; settings: dose 1-128 µg/ml
Enterococcus faecalis = assay: Antibacterial activity against Enterococcus faecalis ATCC 29212 incubated overnight by standard microtiter dilution method; format: functional
Salmonella typhimurium [18] = assay: Antibacterial activity against Salmonella typhimurium DT104 in the presence 25% inactivated mouse serum by MH broth based assay; format: functional, Salmonella enterica subsp. enterica serovar Typhimurium; settings: Salmonella enterica
[19] = Antibacterial activity against Salmonella wandsworth CICC 21504 incubated overnight by standard microtiter dilution method; format: functional, Salmonella enterica subsp. enterica serovar Wandsworth; settings: Salmonella enterica
[20] = Antibacterial activity against Salmonella blockley CICC 21489 incubated overnight by standard microtiter dilution method; format: functional, Salmonella enterica subsp. enterica serovar Blockley; settings: Salmonella enterica
[21] = test system: Salmonella enterica subsp. enterica serovar Paratyphi B; assay: Antibacterial activity against Salmonella paratyphi B CICC 21495 incubated overnight by standard microtiter dilution method; format: functional
Salmonella typhimurium [22] = assay: Antibacterial activity against Salmonella typhimurium DT104 in the presence of NaCl by MH broth based assay; format: functional, Salmonella enterica subsp. enterica serovar Typhimurium; settings: Salmonella enterica
Erythrocyte = assay: Hemolytic activity in human Red blood cells assessed as hemolysis incubated for 1 hrs by absorbance based microplate reader analysis; format: toxicity, cell-based
[23] = Antibacterial activity against Salmonella dublin CICC 21497 incubated overnight by standard microtiter dilution method; format: functional, Salmonella enterica subsp. enterica serovar Dublin; settings: Salmonella enterica
Staphylococcus aureus [24] = assay: Antibacterial activity against Staphylococcus aureus ATCC 29213 incubated overnight by standard microtiter dilution method; format: functional
[25] = test system: Staphylococcus epidermidis; assay: Antibacterial activity against methicillin-resistant Staphylococcus epidermidis ATCC 12228 incubated overnight by standard microtiter dilution method; format: functional
RAW264.7 [26] = assay: Inhibition of LPS-stimulated IL-1beta production in mouse RAW264.7 cells at 1 to 128 ug/ml incubated for 24 hrs by ELISA analysis; format: functional, cell-based; settings: dose 1-128 µg/ml

SMILES	MIC (Salmonella typhimurium [1]) [µg/mL]	MIC (Salmonella typhimurium [2]) [µg/mL]	MIC (Escherichia coli) [µg/mL]	MIC (Salmonella enteritidis) [µg/mL]	MIC (Salmonella typhimurium [3]) [µg/mL]	Activity (Lipopolysaccharide (LPS))	inhibition (RAW264.7 [4])	MIC (Salmonella typhimurium [5]) [µg/mL]	MIC [6] [µg/mL]	MIC (Salmonella typhimurium [7]) [µg/mL]	MIC [8] [µg/mL]	MIC (Candida albicans) [µg/mL]	MIC (Salmonella typhimurium [9]) [µg/mL]	MIC [10] [µg/mL]	MIC (Salmonella typhimurium [11]) [µg/mL]	Activity (Cell membrane)	MIC (Staphylococcus aureus [12]) [µg/mL]	hemolysis at 1 h, 128 ug/ml [13] [%]	MIC (Salmonella typhimurium [14]) [µg/mL]	MIC (Salmonella paratyphi) [µg/mL]	further results
CC(C)[C@H](NC(=O)CNC(=O)[C@H](CC(N)=O)NC(=O)CNC(=O)[C@H](Cc1ccc(O)cc1)NC(=O)[C@H](Cc1ccc(O)cc1)NC(=O)[C@@H](N)CCCCN)C(=O)N[C@@H](Cc1c[nH]cn1)C(=O)N[C@@H](CS)C(=O)N[C@H](C(=O)N[C@@H](CCCCN)C(=O)N[C@@H](CO)C(=O)NCC(=O)N[C@@H](CS)C(=O)N[C@@H](CO)C(=O)N[C@H](C(=O)N[C@@H](CC(N)=O)C(=O)N[C@@H](Cc1c[nH]c2ccccc12)C(N)=O)C(C)C)[C@@H](C)O (H-KYYGNGVHCTKSGCSVNW-NH2)	64	> 128	64 (≈ 32 µM)	64 (≈ 32 µM)	128	Dose-Dependent Effect	Dose-Dependent Effect	64	128 (≈ 63.9 µM)	> 128	32 (≈ 16 µM)	16 (≈ 7.99 µM)	128	32 (≈ 16 µM)	> 128	inactive	> 128	< 10	> 128	128 (≈ 63.9 µM)	inhibition (RAW264.7 [15]): Active; MIC (Salmonella typhimurium [16]): 64 µg/mL (≈ 32 µM); inhibition (RAW264.7 [17]): Active; MIC (Enterococcus faecalis): > 128 µg/mL; MIC (Salmonella typhimurium [18]): > 128 µg/mL; MIC [19]: 64 µg/mL (≈ 32 µM); MIC [20]: 64 µg/mL (≈ 32 µM); MIC [21]: 32 µg/mL (≈ 16 µM); MIC (Salmonella typhimurium [22]): > 128 µg/mL; MHC (Erythrocyte): > 128 µg/mL; MIC [23]: 32 µg/mL (≈ 16 µM); MIC (Staphylococcus aureus [24]): > 128 µg/mL; MIC [25]: 64 µg/mL (≈ 32 µM); inhibition (RAW264.7 [26]): Active
CC(C)[C@H](N)C(=O)N[C@@H](CCCCN)C(=O)N[C@H](C(=O)N[C@@H](CCCCN)C(=O)N[C@@H](CS)C(=O)N[C@H](C(=O)N[C@@H](CCCCN)C(=O)N[C@@H](CO)C(=O)NCC(=O)N[C@@H](CS)C(=O)N[C@@H](CCCCN)C(=O)N[C@H](C(=O)N[C@@H](CCCCN)C(=O)N[C@H](C(N)=O)C(C)C)C(C)C)[C@@H](C)O)C(C)C (H-VKVKCTKSGCKVKV-NH2)	> 128	> 128	64 (≈ 42.5 µM)	> 128	> 128	Dose-Dependent Effect	Dose-Dependent Effect	> 128	> 128	> 128	4 (≈ 2.66 µM)	16 (≈ 10.6 µM)	> 128	64 (≈ 42.5 µM)	> 128	Active	> 128	< 10	> 128	> 128	inhibition (RAW264.7 [15]): Active; MIC (Salmonella typhimurium [16]): > 128 µg/mL; inhibition (RAW264.7 [17]): Active; MIC (Enterococcus faecalis): > 128 µg/mL; MIC (Salmonella typhimurium [18]): > 128 µg/mL; MIC [19]: > 128 µg/mL; MIC [20]: > 128 µg/mL; MIC [21]: 16 µg/mL (≈ 10.6 µM); MIC (Salmonella typhimurium [22]): > 128 µg/mL; MHC (Erythrocyte): > 128 µg/mL; MIC [23]: > 128 µg/mL; MIC (Staphylococcus aureus [24]): > 128 µg/mL; MIC [25]: > 128 µg/mL; inhibition (RAW264.7 [26]): Active
